Assay results reported in ChEMBL document CHEMBL1146573, “Antioxidant activity of a new capsaicin derivative from Capsicum annuum” (J Nat Prod, 2003).

Assay: Antioxidant activity in egg yolk liposomes assessed as inhibition of ADP/Fe(2+)-induced lipid peroxidation after 15 mins by TBARS method
Type: functional

IC50 [µM]	Compound
> 10	COc1cc(CNC(=O)CCCC/C=C/C(C)C)cc(-c2cc(CNC(=O)CCCCCCC(C)C)cc(OC)c2O)c1O
250	Cc1c(C)c2c(c(C)c1O)CC[C@@](C)(CCC[C@H](C)CCC[C@H](C)CCCC(C)C)O2 [ALPHA-TOCOPHEROL]
